Key:
LATS kinase activity [1] = assay: LATS-BS under stimuli regulating Hippo signaling (in vitro luciferase assay and live cell luciferase imaging); type: cell-based, human; details: cell lysates (luciferase assay) and live cells (BLI)
Protocol: For live cell imaging, LATS-BS or a pGL3-control vector were transfected into HEK293, MDA-MB-231 or A549 cells. After 48 hours, cells were trypsinized and collected in a black, clear bottomed, 96-well plate. 150 μg/mL D-luciferin (D-Luciferin, Potassium Salt, GoldBio #LUCK-250) in media was added to each well 5-10 min before imaging. Exposure time for images was approximately 3 min/plate. Imaging was performed using a LightTools Research system (Synopsys, Ltd., Mountain View, Calif., USA) dark box and a Hamamatsu ORCA-Flash4.0 V2 digital CMOS camera over the course of 20 minutes to establish optimal peak luciferase activity. The bioluminescence of the regions of interest was analyzed for total emission flux using Image-Pro® Plus software (Media Cybernetics, Inc., Rockville, Md., USA).
Experiments were conducted to further validate the LATS intermolecular biosensor and explore potential applications for its use. The LATS-BS responded to numerous signals reported to modulate Hippo pathway activity, including cell confluency, drugs activating Hippo signaling (Forskolin, PI3K inhibitor, PDK inhibitor, F-IBMX, and 2-deoxy-glucose) and Hippo signaling inhibitors (LPA, EGF, Insulin, S1P, and TPA). The LATS-BS is activated by LATS in various cell lines (e.g., A549, MDA-MB231).
The following compound treatments were used for in vitro luciferase assay and live cells imaging: RAF inhibitor (GW5054, Cayman Chemical, Ann Arbor, Mich., USA), ATR inhibitor (CGK733, Cayman Chemical), PI3K inhibitor 1 (GDC0941, Cayman Chemical), PI3K inhibitor 2 (LY294002, Cayman Chemical), PDK inhibitor (GSK2334470, Cayman Chemical)—10 μM for 4 hours; EGF-100 ng/mL for 1 hour; insulin (Sigma #91077C)—10 μg/ml for 1 hour, F/IBMX (Forskolin, Cayman Chemical/IBMX, Cayman Chemical)—0.1-10 μM for Forskolin and 100 μM for IBMX for 1 hour; L-α-lysophosphatidic acid (LPA) (Sigma #L7260)—0.1-10 μM for 1 hour, sphingosine1-phosphophate (S1P)—1 μM for 1 hour; 12-O-tetradecanoylphorbol-13-acetate (TPA) (#41745; Cell Signaling Technology, Inc., Danvers, Mass., USA)—5 nM for 1 hour; 2-deoxy glucose (#D8375, Sigma-Aldrich Canada Co., Oakville, Ontario, Canada)—25 mM for 1 hour.

LATS kinase activity [2] = assay: LATS-BS validation in transfected HEK293 cells (luciferase assay / western blot); type: cell-based, human; details: HEK293 co-transfected with LATS-BS and MST2, 10 μM LPA for 1 hour before collection
Protocol: In a validation study, LATS-BS was transfected alone or together with LATS2 or/and MST2 into HEK293 cells and biosensor activity or NLuc-YAP15-S127 phosphorylation status were determined 48 hours after transfection by luciferase assay or western blot, respectively. As depicted in FIG. 2C, HEK293 cells transfected with LATS-BS alone had low luciferase activity and this was correlated with a low degree of Nluc-YAP15-S127 phosphorylation. Co-transfection of LATS-BS with MST2 was associated with increases in both Nluc-YAP-S127 phosphorylation and luciferase activity, and this effect was suppressed with lysophosphatidic acid (LPA), an inhibitor of the Hippo pathway. For lysophosphatidic acid (LPA) treatment, cells were stimulated with 10 μM LPA for 1 hour before collection (n=3). LATS-BS co-expression with both MST2 and LATS2 was correlated with further increases in Nluc-YAP15-S127 phosphorylation and luciferase activity. Collectively, these observations are consistent with a model where MST2 activates LATS2, which phosphorylates Nluc-YAP15-S127, leading to binding with Cluc-14-3-3 and reconstitution of active luciferase.

EGF: Hippo signaling inhibitor
LATS-BS response to signals modulating Hippo pathway activity (LATS kinase activity [1]): responded

Insulin: Hippo signaling inhibitor (Sigma #91077C)
LATS-BS response to signals modulating Hippo pathway activity (LATS kinase activity [1]): responded

CNc1nc(-c2ccc3c(N)n[nH]c3c2)cc(N2C[C@@H](C(=O)NC3CCCCC3)CC[C@H]2C)n1 [PDK inhibitor]
LATS-BS response to signals modulating Hippo pathway activity (LATS kinase activity [1]): responded

O=CC[C@@H](O)[C@H](O)[C@H](O)CO [2-deoxy-glucose, 2-deoxy glucose]
LATS-BS response to signals modulating Hippo pathway activity (LATS kinase activity [1]): responded

L-α-lysophosphatidic acid [LPA]
Nluc-YAP-S127 phosphorylation (western blot) (LATS kinase activity [2]): suppressed | LATS-BS luciferase activity (LATS kinase activity [2]; n=3): suppressed | LATS-BS response to signals modulating Hippo pathway activity (LATS kinase activity [1]): responded

CCCCCCCCCCCCCC(=O)O[C@@H]1[C@@H](C)[C@@]2(O)[C@@H](C=C(CO)C[C@]3(O)C(=O)C(C)=C[C@@H]23)[C@@H]2C(C)(C)[C@]12OC(C)=O [TPA, 12-O-tetradecanoylphorbol-13-acetate]
LATS-BS response to signals modulating Hippo pathway activity (LATS kinase activity [1]): responded

CCCCCCCCCCCCC/C=C/[C@@H](O)[C@@H](N)COP(=O)(O)O [S1P, sphingosine1-phosphophate]
LATS-BS response to signals modulating Hippo pathway activity (LATS kinase activity [1]): responded

Source: patent publication US11579149B2, “Hippo pathway bioluminescent biosensor” (Queen's University at Kingston, priority 2017, dated 2023)
